This test relates to lung carcinoma (LLC cell line). The test can be described thus: NIR-II fluorescence imaging of subcutaneous LLC tumor-bearing C57BL/6 mice. Type of test: in vivo, mouse. The source says: General NIR-II fluorescence imaging: A 640×512-pixel InGaAs camera (Ninox640, Raptor Photonics) and macro zoom lens (0-10×; Navitar Zoom 7000 with SWIR coating) along with 900, 1070, 1100, and 1200 nm long-pass (LP) filters from either Thorlab or Edmund optics were used to collect the NIR-II signal. InGaAs camera played a role as an open-air imaging system along with the support of the FLARE system. An 808 nm fiber-coupled diode laser ([…] at the sample) was used as an excitation source. Data acquisition was done using in-house developed software. […] Mice were imaged with intact skin using InGaAs camera. At least 3 mice were analyzed for each sample. Tumor-bearing mouse models: Animals were housed in an AAALAC-certified facility and were studied under the protocols approved by the MGH IACUC (2016N000136). Mice were maintained under anesthesia with isoflurane and oxygen during the experiment. To establish the various tumor-bearing mouse models including lung carcinoma, pancreatic ductal adenocarcinoma (PDAC), and triple negative breast adenocarcinoma, eight-week-old C57BL/6 mice (Taconic Farms, Germantown, NY) were subcutaneously injected with 2×10^5 LLC, Pan02, and E0771 cells suspended in DMEM/Matrigel (100 μL, 50 v/v %) in the flank region, respectively. Female C57BL/6 mice were used for the breast cancer (E0771) model, otherwise male mice were used. […] Statistical analysis: The fluorescence and background intensities of a region of interest over each tissue were quantified using customized imaging software and ImageJ v1.48 (National Institutes of Health, Bethesda, MD). The signal-to-background ratio (SBR) was calculated as SBR=fluorescence/background, where background was the fluorescence intensity of muscle. Data were reported as mean±s.e.m. with a minimum of three biological replicates. Student's t-test statistical analysis was performed to evaluate the significance of the experimental data. The differences among groups were determined using one-way ANOVA analysis to assess the statistical differences among more than two groups. […] The data was indicated with *p<0.05, ** p<0.01, *** p<0.001, and **** p<0.0001.

`CCCCN1/C(=C/C=C2\CCCC(/C=C/C3=[N+](CCCC)c4ccc(Cl)cc4C3(C)C)=C2Cl)C(C)(C)c2cc(Cl)ccc21` [SH1, 1-butyl-2-((E)-2-((E)-3-(2-((E)-1-butyl-5-chloro-3,3-dimethylindolin-2-ylidene)ethylidene)-2-chlorocyclohex-1-en-1-yl)vinyl)-5-chloro-3,3-dimethyl-3H-indol-1-ium]: the “tumor targeting / tumor signal” value (intravenous, NIR-II imaging until 48 h post-injection) was “superb signal intensity in tumor area”. This molecule also showed a TBR (larger-sized lung tumors) of 23.7.

The values are drawn from patent US20260166182A1, “CYANINE-BASED FLUOROPHORES” (The General Hospital Corporation, priority 2022, published 2026).
